According to patent publication US20240376056A1, “PHENYL ACETAMIDE BASED IL-17A MODULATORS AND USES THEREOF” (DiCE Alpha, Inc., priority 2021, published 2024):

biological target: T1, IL-17A/A (Homo sapiens, UniProt Q16552); assay: HEK-Blue IL-17A/A inhibition assay (SEAP reporter); assay type: cell-based; settings: HEK-Blue cells (HEK 293 expressing IL-17RA, IL-17RC, Act1); IL-17A/A stimulation; 20 hours; SEAP read at A630; 4-parameter fit
T1 construct: purchased Genscript Z03228
T1 sequence (Q16552 24-155): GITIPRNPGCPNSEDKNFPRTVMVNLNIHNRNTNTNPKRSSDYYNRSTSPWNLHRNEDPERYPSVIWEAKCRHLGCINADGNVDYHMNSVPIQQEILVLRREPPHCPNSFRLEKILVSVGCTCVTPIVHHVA
Protocol: The HEK-Blue #NC108637 […]. Cells were grown and prepared for assays according to the manufacturer's instructions. This cell line consists of HEK 293 cells that were designed to expressed IL-17R^A, IL-17RC, and the ActI adapter molecule, the combination of which. when stimulated by IL-17A/A activates a NFtcB promoter and drives expression of a recombinant Secreted Alkaline Phosphatase (SEAP) geneprotein. Media from the cells is then added to a development reagent (Quanti-Blue Substrate, Fisher #NC971 1613), and read at A630.
Compounds were titrated in DMSO. with a top final compound concentration of 10 uM, 1 uM, or 0.3 uM, and added to the cells immediately before adding IL-17A/A (Genscript #Z03228). The cells, compound, and IL-17A/A were then incubated for 20 hours before media was removed for SEAP analysis. The resulting inhibition curve was then analyzed using Graphpad Prism 7.0, and IC50 values were determined using a 4-parameter nonlinear fit. DMSO was added to a universal final concentration of 0.1% to optimze background.

First: CC(C(=O)NCC(F)(F)F)c1cc(F)c(NC(=O)[C@@H](NC(=O)c2ccnn2C(C)C)C(C2CC2)C2CC2)cc1C1CC1 (single isomer, unassigned) [Compound 126]
Second: CNc1cc(NC(=O)[C@@H](NC(=O)c2ccnn2C(C)C)C(C2CC2)C2CC2)c(F)cc1C(C)C(=O)NCC(F)(F)F (single isomer, unassigned) [Compound 164]
The IC50 of the first is higher: 100 to 1000 nM for the first, < 100 nM for the second. The second is the more potent here.

`CC(C(=O)NCC(F)(F)F)c1cc(F)c(NC(=O)[C@@H](NC(=O)c2ccnn2C(C)C)C(C2CC2)C2CC2)cc1C1CC1` (single isomer, unassigned) [Compound 127] and `CC(C(=O)NCC(F)(F)F)c1cc(F)c(NC(=O)[C@@H](NC(=O)c2ccnn2C(C)C)C(C2CC2)C2CC2)cc1N(C)C` (single isomer, unassigned) [Compound 163] cannot be ordered by IC50: < 100 nM for the first, < 100 nM for the second.

First: CC(C)C(C(=O)NCC(F)(F)F)c1ccc(NC(=O)[C@@H](NC(=O)c2ccnn2C(C)C)C(C2CC2)C2CC2)c(F)c1 (single isomer, unassigned) [Compound 128]
Second: CC(C)n1nccc1C(=O)N[C@H](C(=O)Nc1ccc(C(N)C(=O)NCC(F)(F)F)cc1F)C(C1CC1)C1CC1 (single isomer, unassigned) [Compound 189]
The IC50 of the first is lower: 100 to 1000 nM for the first, > 1000 nM for the second. The first is the more potent here.

First: CC(C)C(C(=O)NCC(F)(F)F)c1ccc(NC(=O)[C@@H](NC(=O)c2ccnn2C(C)C)C(C2CC2)C2CC2)c(F)c1 (single isomer, unassigned) [Compound 129]
Second: CC(C)n1nccc1C(=O)N[C@H](C(=O)Nc1ccc(C(N)C(=O)NCC(F)(F)F)cc1F)C(C1CC1)C1CC1 (single isomer, unassigned) [Compound 191]
The IC50 of the first is higher: > 1000 nM for the first, 100 to 1000 nM for the second.

`CC(C)n1nccc1C(=O)N[C@H](C(=O)Nc1ccc(C(CN2CCOCC2)C(=O)NCC(F)(F)F)cc1F)C(C1CC1)C1CC1` (single isomer, unassigned) [Compound 130] and `CC(C)n1nccc1C(=O)N[C@H](C(=O)Nc1ccc(C(C(=O)NCC(F)(F)F)N2CCOCC2)cc1F)C(C1CC1)C1CC1` (single isomer, unassigned) [Compound 140] cannot be ordered by IC50: > 1000 nM for the first, > 1000 nM for the second.

First: CC(C)n1nccc1C(=O)N[C@H](C(=O)Nc1ccc(C(CN2CCOCC2)C(=O)NCC(F)(F)F)cc1F)C(C1CC1)C1CC1 (single isomer, unassigned) [Compound 131]
Second: CC(C)n1nccc1C(=O)N[C@H](C(=O)Nc1ccc(C(C(=O)NCC(F)(F)F)N2CCOCC2)cc1F)C(C1CC1)C1CC1 (single isomer, unassigned) [Compound 141]
The IC50 of the first is lower: 100 to 1000 nM for the first, > 1000 nM for the second.

First: CC(C)n1nccc1C(=O)N[C@H](C(=O)Nc1ccc([C@H](C)C(=O)NC2CNCC2(F)F)cc1F)C(C1CC1)C1CC1 (single isomer, unassigned) [Compound 133]
Second: CC(C)n1nccc1C(=O)N[C@H](C(=O)Nc1ccc([C@H](C)C(=O)NC(C2CCOC2)C(F)(F)F)cc1F)C(C1CC1)C1CC1 (single isomer, unassigned) [Compound 151]
The IC50 of the first is higher: > 1000 nM for the first, 100 to 1000 nM for the second. The second is the more potent here.

`CC(C)n1nccc1C(=O)N[C@H](C(=O)Nc1ccc([C@H](C)C(=O)NC2CNCC2(F)F)cc1F)C(C1CC1)C1CC1` (single isomer, unassigned) [Compound 134] and `CC(C)n1nccc1C(=O)N[C@H](C(=O)Nc1ccc([C@H](C)C(=O)NC(C2CCOC2)C(F)(F)F)cc1F)C(C1CC1)C1CC1` (single isomer, unassigned) [Compound 152] fall in the same range of IC50: 100 to 1000 nM for the first, 100 to 1000 nM for the second.

First: CC(C(=O)N(CC(N)=O)CC(F)(F)F)c1ccc(NC(=O)[C@@H](NC(=O)c2ccnn2C(C)C)C(C2CC2)C2CC2)c(F)c1 (single isomer, unassigned) [Compound 137]
Second: CCC(C(=O)NCC(F)(F)F)c1ccc(NC(=O)[C@@H](NC(=O)c2ccnn2C(C)C)C(C2CC2)C2CC2)c(F)c1 (single isomer, unassigned) [Compound 149]
The IC50 of the first is lower: < 100 nM for the first, 100 to 1000 nM for the second.

`CC(C(=O)N(CC(N)=O)CC(F)(F)F)c1ccc(NC(=O)[C@@H](NC(=O)c2ccnn2C(C)C)C(C2CC2)C2CC2)c(F)c1` (single isomer, unassigned) [Compound 138] and `CCC(C(=O)NCC(F)(F)F)c1ccc(NC(=O)[C@@H](NC(=O)c2ccnn2C(C)C)C(C2CC2)C2CC2)c(F)c1` (single isomer, unassigned) [Compound 150] cannot be ordered by IC50: > 1000 nM for the first, > 1000 nM for the second.

First: CC(C)n1nccc1C(=O)N[C@H](C(=O)Nc1ccc([C@H](C)C(=O)N2CC(O)CC2C(F)(F)F)cc1F)C(C1CC1)C1CC1 (single isomer, unassigned) [Compound 142]
Second: Cc1cc(NC(=O)[C@@H](NC(=O)c2ccnn2C(C)C)C(C2CC2)C2CC2)c(F)cc1C(C)C(=O)N1CC(O)CC1C(F)(F)F (single isomer, unassigned) [Compound 172]
The IC50 of the first is lower: < 100 nM for the first, 100 to 1000 nM for the second. The first is the more potent here.

First: CC(C)n1nccc1C(=O)N[C@H](C(=O)Nc1ccc([C@H](C)C(=O)N2CC(O)CC2C(F)(F)F)cc1F)C(C1CC1)C1CC1 (single isomer, unassigned) [Compound 143]
Second: Cc1cc(NC(=O)[C@@H](NC(=O)c2ccnn2C(C)C)C(C2CC2)C2CC2)c(F)cc1C(C)C(=O)N1CC(O)CC1C(F)(F)F (single isomer, unassigned) [Compound 173]
The IC50 of the first is higher: 100 to 1000 nM for the first, < 100 nM for the second. The second is the more potent here.

First: CC(C)n1nccc1C(=O)N[C@H](C(=O)Nc1ccc([C@H](C)C(=O)N2CC(O)CC2C(F)(F)F)cc1F)C(C1CC1)C1CC1 (single isomer, unassigned) [Compound 144]
Second: Cc1cc(NC(=O)[C@@H](NC(=O)c2ccnn2C(C)C)C(C2CC2)C2CC2)c(F)cc1C(C)C(=O)N1CC(O)CC1C(F)(F)F (single isomer, unassigned) [Compound 199]
The IC50 of the first is higher: > 1000 nM for the first, < 100 nM for the second.

`CC(C)n1nccc1C(=O)N[C@H](C(=O)Nc1ccc([C@H](C)C(=O)N2CC(O)CC2C(F)(F)F)cc1F)C(C1CC1)C1CC1` (single isomer, unassigned) [Compound 145] and `COc1cc(NC(=O)[C@@H](NC(=O)c2ccnn2C(C)C)C(C2CC2)C2CC2)c(F)cc1C(C)C(=O)N1CC(O)CC1C(F)(F)F` (single isomer, unassigned) [Compound 182] cannot be ordered by IC50: > 1000 nM for the first, > 1000 nM for the second.

Compared with `CC(C)n1nccc1C(=O)N[C@H](C(=O)Nc1ccc([C@H](C)C(=O)N2C(C(N)=O)CCC2C(F)(F)F)cc1F)C(C1CC1)C1CC1` (single isomer, unassigned) [Compound 146], `CC(=O)NC(C(=O)NCC(F)(F)F)c1ccc(NC(=O)[C@@H](NC(=O)c2ccnn2C(C)C)C(C2CC2)C2CC2)c(F)c1` (single isomer, unassigned) [Compound 167] is lower in IC50: > 1000 nM for the first, 100 to 1000 nM for the second.

`CC(C)n1nccc1C(=O)N[C@H](C(=O)Nc1ccc([C@H](C)C(=O)N2C(C(N)=O)CCC2C(F)(F)F)cc1F)C(C1CC1)C1CC1` (single isomer, unassigned) [Compound 147] and `COc1cc(NC(=O)[C@@H](NC(=O)c2ccnn2C(C)C)C(C2CC2)C2CC2)c(F)cc1C(C)C(=O)N1CC(O)CC1C(F)(F)F` (single isomer, unassigned) [Compound 183] cannot be ordered by IC50: > 1000 nM for the first, > 1000 nM for the second.

First: CC(C)n1nccc1C(=O)N[C@H](C(=O)Nc1ccc([C@H](C)C(=O)N2C(C(N)=O)CCC2C(F)(F)F)cc1F)C(C1CC1)C1CC1 (single isomer, unassigned) [Compound 148]
Second: CC(=O)Nc1cc(NC(=O)[C@@H](NC(=O)c2ccnn2C(C)C)C(C2CC2)C2CC2)c(F)cc1C(C)C(=O)NCC(F)(F)F (single isomer, unassigned) [Compound 159]
The IC50 of the first is higher: > 1000 nM for the first, < 100 nM for the second. The second is the more potent here.

`CCOC(=O)Nc1cc(NC(=O)[C@@H](NC(=O)c2ccnn2C(C)C)C(C2CC2)C2CC2)c(F)cc1C(C)C(=O)NCC(F)(F)F` (single isomer, unassigned) [Compound 158] and `COC(=O)Nc1cc(NC(=O)[C@@H](NC(=O)c2ccnn2C(C)C)C(C2CC2)C2CC2)c(F)cc1C(C)C(=O)NCC(F)(F)F` (single isomer, unassigned) [Compound 161] cannot be ordered by IC50: < 100 nM for the first, < 100 nM for the second.

`CC(C(=O)N(C)CC(F)(F)F)c1cc(F)c(NC(=O)[C@@H](NC(=O)c2ccnn2C(C)C)C(C2CC2)C2CC2)cc1N(C)C` (single isomer, unassigned) [Compound 162] and `COc1cc(NC(=O)[C@@H](NC(=O)c2ccnn2C(C)C)C(C2CC2)C2CC2)c(F)cc1C(C)C(=O)NC(CO)C(F)(F)F` (single isomer, unassigned) [Compound 180] cannot be ordered by IC50: < 100 nM for the first, < 100 nM for the second.

First: CCn1nccc1C(=O)N[C@H](C(=O)Nc1c(F)cc(C(C)C(=O)NCC(F)(F)F)cc1F)C(C1CC1)C1CC1 (single isomer, unassigned) [Compound 170]
Second: CC(C(=O)NCC(F)(F)F)c1cc(F)c(NC(=O)[C@@H](NC(=O)c2ccnn2C(C)C)C(C2CC2)C2CC2)cc1OC(F)(F)F (single isomer, unassigned) [Compound 185]
The IC50 of the first is higher: > 1000 nM for the first, < 100 nM for the second. The second is the more potent here.

`CCn1nccc1C(=O)N[C@H](C(=O)Nc1c(F)cc(C(C)C(=O)NCC(F)(F)F)cc1F)C(C1CC1)C1CC1` (single isomer, unassigned) [Compound 171] and `CC(C(=O)NCC(F)(F)F)c1cc(F)c(NC(=O)[C@@H](NC(=O)c2ccnn2C(C)C)C(C2CC2)C2CC2)cc1NC(F)(F)F` (single isomer, unassigned) [Compound 186] fall in the same range of IC50: 100 to 1000 nM for the first, 100 to 1000 nM for the second.

In the case of `COc1cc(NC(=O)[C@@H](NC(=O)c2ccnn2C(C)C)C(C2CC2)C2CC2)c(F)cc1C(C)C(=O)NC(CO)C(F)(F)F` (single isomer, unassigned) [Compound 181], the IC50 is reported as 100 to 1000 nM.
